From PubChem BioAssay (NCI)
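Values below derive from 48-hour exposures of cells grown in 96-well plates, with endpoints linearly interpolated between the two concentrations bracketing the appropriate inhibition level. GI50: concentration for 50% inhibition of growth. TGI denotes the concentration required for complete inhibition of growth.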

Legend:
Assay in all cases: DTP human tumour cell line panel, 48 h
HCC-2998 colon = system: HCC-2998 colon
PC-3 prostate = system: PC-3 prostate
UO-31 renal = system: UO-31 renal
TK-10 renal = system: TK-10 renal
OVCAR-5 ovarian = system: OVCAR-5 ovarian
OVCAR-4 ovarian = system: OVCAR-4 ovarian
SN12C renal = system: SN12C renal
MALME-3M melanoma = system: MALME-3M melanoma
HL-60(TB) leukemia = system: HL-60(TB) leukemia
CAKI-1 renal = system: CAKI-1 renal
786-0 renal = system: 786-0 renal
NCI-H522 lung = system: NCI-H522 lung
MCF7 breast = system: MCF7 breast
A549 NSCLC = system: A549 NSCLC
SK-OV-3 ovarian = system: SK-OV-3 ovarian
ACHN renal = system: ACHN renal
SNB-19 CNS = system: SNB-19 CNS
HT29 colon = system: HT29 colon
A498 renal = system: A498 renal
RXF 393 renal = system: RXF 393 renal
SK-MEL-5 melanoma = system: SK-MEL-5 melanoma
SF-539 CNS = system: SF-539 CNS
NCI-H23 lung = system: NCI-H23 lung
MDA-MB-435 = system: MDA-MB-435
HCT-15 colon = system: HCT-15 colon
DU-145 prostate = system: DU-145 prostate
COLO 205 colon = system: COLO 205 colon
T-47D breast = system: T-47D breast
OVCAR-3 ovarian = system: OVCAR-3 ovarian
CCRF-CEM leukemia = system: CCRF-CEM leukemia
BT-549 breast = system: BT-549 breast
UACC-62 melanoma = system: UACC-62 melanoma
K-562 leukemia = system: K-562 leukemia
SK-MEL-28 melanoma = system: SK-MEL-28 melanoma
SNB-75 CNS = system: SNB-75 CNS
SK-MEL-2 melanoma = system: SK-MEL-2 melanoma
NCI-H226 lung = system: NCI-H226 lung
RPMI-8226 leukemia = system: RPMI-8226 leukemia
OVCAR-8 ovarian = system: OVCAR-8 ovarian
U251 CNS = system: U251 CNS
KM12 colon = system: KM12 colon
NCI-H460 lung = system: NCI-H460 lung
SF-268 CNS = system: SF-268 CNS
LOX IMVI melanoma = system: LOX IMVI melanoma
IGROV1 ovarian = system: IGROV1 ovarian
HOP-62 NSCLC = system: HOP-62 NSCLC
M14 melanoma = system: M14 melanoma
SF-295 CNS = system: SF-295 CNS
MOLT-4 leukemia = system: MOLT-4 leukemia
SR leukemia = system: SR leukemia
HS 578T breast = system: HS 578T breast
HCT-116 colon = system: HCT-116 colon
NCI/ADR-RES ovarian = system: NCI/ADR-RES ovarian
EKVX NSCLC = system: EKVX NSCLC
UACC-257 melanoma = system: UACC-257 melanoma
SW-620 colon = system: SW-620 colon
MDA-MB-231 breast = system: MDA-MB-231 breast

NC(=S)N/N=C/c1ccc(OC(=O)COc2ccccc2)cn1
GI50 (HCC-2998 colon): 8.37 µM | TGI (HCC-2998 colon): > 100 µM | GI50 (PC-3 prostate): 5.34 µM | TGI (PC-3 prostate): > 100 µM | GI50 (UO-31 renal): 3.91 µM | TGI (UO-31 renal): 39.2 µM | GI50 (TK-10 renal): > 100 µM | TGI (TK-10 renal): > 100 µM | GI50 (OVCAR-5 ovarian): 49.7 µM | TGI (OVCAR-5 ovarian): > 100 µM | GI50 (OVCAR-4 ovarian): 3.39 µM | TGI (OVCAR-4 ovarian): > 100 µM | GI50 (SN12C renal): 5.3 µM | TGI (SN12C renal): > 100 µM | GI50 (MALME-3M melanoma): 11.2 µM | TGI (MALME-3M melanoma): > 100 µM | GI50 (HL-60(TB) leukemia): 1.18 µM | TGI (HL-60(TB) leukemia): > 100 µM | GI50 (CAKI-1 renal): 4.01 µM | TGI (CAKI-1 renal): > 100 µM | GI50 (786-0 renal): 3.89 µM | TGI (786-0 renal): > 100 µM | GI50 (NCI-H522 lung): 8.6 µM | TGI (NCI-H522 lung): 57.2 µM | GI50 (MCF7 breast): 2.76 µM | TGI (MCF7 breast): > 100 µM | GI50 (A549 NSCLC): 30 µM | TGI (A549 NSCLC): > 100 µM | GI50 (SK-OV-3 ovarian): 40.9 µM | TGI (SK-OV-3 ovarian): > 100 µM | GI50 (ACHN renal): 3.65 µM | TGI (ACHN renal): > 100 µM | GI50 (SNB-19 CNS): 28.5 µM | TGI (SNB-19 CNS): > 100 µM | GI50 (HT29 colon): 39 µM | TGI (HT29 colon): > 100 µM | GI50 (A498 renal): 14.8 µM | TGI (A498 renal): 81 µM | GI50 (RXF 393 renal): 5.34 µM | TGI (RXF 393 renal): > 100 µM | GI50 (SK-MEL-5 melanoma): 3.12 µM | TGI (SK-MEL-5 melanoma): 29.1 µM | GI50 (SF-539 CNS): 2.94 µM | TGI (SF-539 CNS): 10.9 µM | GI50 (NCI-H23 lung): 4.49 µM | TGI (NCI-H23 lung): > 100 µM | GI50 (MDA-MB-435): 10.9 µM | TGI (MDA-MB-435): > 100 µM | GI50 (HCT-15 colon): 20.2 µM | TGI (HCT-15 colon): > 100 µM | GI50 (DU-145 prostate): 2.72 µM | TGI (DU-145 prostate): 8.96 µM | GI50 (COLO 205 colon): 33.3 µM | TGI (COLO 205 colon): > 100 µM | GI50 (T-47D breast): 7.45 µM | TGI (T-47D breast): > 100 µM | GI50 (OVCAR-3 ovarian): 2.17 µM | TGI (OVCAR-3 ovarian): > 100 µM | GI50 (CCRF-CEM leukemia): 1.58 µM | TGI (CCRF-CEM leukemia): > 100 µM | GI50 (BT-549 breast): 26.4 µM | TGI (BT-549 breast): > 100 µM | GI50 (UACC-62 melanoma): 4.67 µM | TGI (UACC-62 melanoma): > 100 µM | GI50 (K-562 leukemia): 2.88 µM | TGI (K-562 leukemia): > 100 µM | GI50 (SK-MEL-28 melanoma): 44.4 µM | TGI (SK-MEL-28 melanoma): > 100 µM | GI50 (SNB-75 CNS): 10.4 µM | TGI (SNB-75 CNS): > 100 µM | GI50 (SK-MEL-2 melanoma): > 100 µM | TGI (SK-MEL-2 melanoma): > 100 µM | GI50 (NCI-H226 lung): 20.3 µM | TGI (NCI-H226 lung): 64 µM | GI50 (RPMI-8226 leukemia): 7.47 µM | TGI (RPMI-8226 leukemia): > 100 µM | GI50 (OVCAR-8 ovarian): 3.26 µM | TGI (OVCAR-8 ovarian): > 100 µM | GI50 (U251 CNS): 4.15 µM | TGI (U251 CNS): > 100 µM | GI50 (KM12 colon): 3.16 µM | TGI (KM12 colon): > 100 µM | GI50 (NCI-H460 lung): 5.04 µM | TGI (NCI-H460 lung): 63.4 µM | GI50 (SF-268 CNS): 2.95 µM | TGI (SF-268 CNS): > 100 µM | GI50 (LOX IMVI melanoma): 3.48 µM | TGI (LOX IMVI melanoma): > 100 µM | GI50 (IGROV1 ovarian): 9.39 µM | TGI (IGROV1 ovarian): > 100 µM | GI50 (HOP-62 NSCLC): 11.1 µM | TGI (HOP-62 NSCLC): 80.8 µM | GI50 (M14 melanoma): 3.57 µM | TGI (M14 melanoma): 12.1 µM | GI50 (SF-295 CNS): 20.7 µM | TGI (SF-295 CNS): > 100 µM | GI50 (MOLT-4 leukemia): 2.53 µM | TGI (MOLT-4 leukemia): > 100 µM | GI50 (SR leukemia): 0.596 µM | TGI (SR leukemia): > 100 µM | GI50 (HS 578T breast): 68.4 µM | TGI (HS 578T breast): > 100 µM | GI50 (HCT-116 colon): 5.98 µM | TGI (HCT-116 colon): > 100 µM | GI50 (NCI/ADR-RES ovarian): 4.14 µM | TGI (NCI/ADR-RES ovarian): > 100 µM | GI50 (EKVX NSCLC): 40 µM | TGI (EKVX NSCLC): > 100 µM | GI50 (UACC-257 melanoma): 14.7 µM | TGI (UACC-257 melanoma): 88.9 µM | GI50 (SW-620 colon): 5.02 µM | TGI (SW-620 colon): > 100 µM | GI50 (MDA-MB-231 breast): 8.27 µM | TGI (MDA-MB-231 breast): > 100 µM
